# System: bovine cardiac myofibrils
# Test: Myofibril assay: PK/LDH-coupled steady-state ATPase activity of skinned bovine cardiac myofibrils
# Format: biochemical
# Settings: Ca2+ activating to 75% of maximal rate
# In short: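 Steady-state ATPase of detergent-skinned bovine left-ventricular myofibrils (1 mg/mL), PK/LDH-coupled NADH read at 340 nm, in PIPES/MgCl2 buffer pH 6.8 with 50 μM ATP, 0.6 mM EGTA and CaCl2 set for 50% or 75% activation. Inhibition of activity measured.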
row,CDMF75 IC15,Structure (SMILES)
1,9.3 µM,"CC(C)N1C(=O)C2(CN(c3ccccc3)C2)N(Cc2ccc(Cl)cc2)C(=O)C1C (centres unmarked) [Compound 329, 5-(4-chlorobenzyl)-8-isopropyl-7-methyl-2-phenyl-2,5,8-triazaspiro-[3.5]nonane-6,9-dione]"
2,>39 µM,"O=C1C(C2CC(O)C2)N(Cc2ccc(F)cc2)C(=O)CN1c1ccc(Cl)cc1F (single isomer, unassigned) [Compound 866B, 1-(4-chloro-2-fluorophenyl)-4-(4-fluorobenzyl)-3-(3-hydroxycyclobutyl)piperazine-2,5-dione]"
3,16.4 µM,"CC(=O)N1CC(CC2C(=O)N(c3ncc(Cl)cc3F)CC(=O)N2Cc2ccc(Cl)cc2)C1 (stereo not drawn) [Compound 662, 3-((1-acetylazetidin-3-yl)methyl)-l-(5-chloro-3-fluoropyridin-2-yl)-4-(4-chlorobenzyl)piperazine-2,5-dione]"
4,9.9 µM,"CNC(=O)N1CCC2(C1)C(=O)N(C(C)C)CC(=O)N2Cc1ccc(Cl)cc1 (centres unmarked) [Compound 121, 6-(4-chlorobenzyl)-9-isopropyl-N-methyl-7,10-dioxo-2,6,9-triazaspiro[4.5]-decane-2-carboxamide]"
5,4.1 µM,"CC(C)N1CC(=O)N(Cc2ccc(Cl)cc2)C2(CCN(c3cnn(C)c3)C2)C1=O (centres unmarked) [Compound 78, 6-(4-chlorobenzyl)-9-isopropyl-2-(1-methyl-1H-pyrazol-4-yl)-2,6,9-triazaspiro[4.5]decane-7,10-dione]"
6,2.6 µM,"CC(C)N1CC(=O)N(Cc2ccc(Cl)cc2)C2(CN(c3cnn(C)c3)C2)C1=O [Compound 21, 5-(4-chlorobenzyl)-8-isopropyl-2-(1-methyl-1H-pyrazol-4-yl)-2,5,8-triazaspiro[3.5]nonane-6,9-dione]"
7,>39 µM,"O=C1C(C2CC(O)C2)N(Cc2ccc(F)cc2)C(=O)CN1c1ccc(Cl)cc1F (single isomer, unassigned) [Compound 866D, 1-(4-chloro-2-fluorophenyl)-4-(4-fluorobenzyl)-3-(3-hydroxycyclobutyl)piperazine-2,5-dione]"
8,5.0 µM,"CC(C)N1CC(=O)N(Cc2ccc(Cl)cc2)C2(CCN(c3cc(C#N)ccn3)C2)C1=O (centres unmarked) [Compound 95, 2-(6-(4-chlorobenzyl)-9-isopropyl-7,10-dioxo-2,6,9-triazaspiro[4.5]decan-2-yl)isonicotinonitrile]"
9,3.7 µM,"CC(C)N1CC(=O)N(Cc2ccc(F)cc2)C(c2ccc(Cl)cc2)C1=O (centres unmarked) [Compound 303, 3-(4-chlorophenyl)-4-(4-fluorobenzyl)-1-isopropylpiperazine-2,5-dione]"
10,6.0 µM,"CC(C)N1CC(=O)N(Cc2ccc(Cl)cc2)C2(CN(c3ccnc(C(N)=O)c3)C2)C1=O [Compound 37, 4-(5-(4-chlorobenzyl)-8-isopropyl-6,9-dioxo-2,5,8-triazaspiro[3.5]nonan-2-yl)picolinamide]"
11,27.0 µM,"CC(C)N1CC(=O)N(Cc2cccc(C#N)c2)C(c2ccc(Cl)cc2)C1=O (centres unmarked) [Compound 306, 3-((2-(4-chlorophenyl)-4-isopropyl-3,6-dioxo-piperazin-1-yl)methyl)-benzonitrile]"

# Further lines, the compound ahead of its results:
row,Structure (SMILES),CDMF75 IC15
1,"CNC(=O)N1CC2(C1)C(=O)N(c1ccc(C(=O)OC)cc1)CC(=O)N2Cc1ccc(C(F)(F)F)cc1 [Compound 148, methyl 4-(2-(methylcarbamoyl)-6,9-dioxo-5-(4-(trifluoro-methyl)benzyl)-2,5,8-triazaspiro[3.5]nonan-8-yl)benzoate]",2.3 µM
2,"CNC(=O)N1CC(C2C(=O)N(c3ncc(Cl)cc3F)CC(=O)N2Cc2ccc(Cl)cc2)C1 (centres unmarked) [Compound 642, 3-(4-(5-chloro-3-fluoro-pyridin-2-yl)-1-(4-chloro-benzyl)-3,6-dioxopiperin-2-yl)-N-methylazetidine-1-carboxamide]",10.9 µM
3,"O=C1CN(c2ncc(Cl)cc2F)C(=O)C2(CC3(COC3)C2)N1Cc1ccc(C(F)F)cc1 [Compound 814, 10-(5-chloro-3-fluoro-pyridin-2-yl)-7-(4-(difluoromethyl)benzyl)-2-oxa-7,10-diazadispiro-[3.1.56.14]dodecane-8,11-dione]",0.8 µM
4,"N#Cc1ccc(N2CC(=O)N(Cc3ccc(C(F)(F)F)cc3)[C@]3(CCN(C(=O)C4CCC4)C3)C2=O)c(F)c1 [Compound 217, (S)-4-(2-(cyclobutane-carbonyl)-7,10-dioxo-6-(4-(trifluoromethyl)benzyl)-2,6,9-triazaspiro[4.5]decan-9-yl)-3-fluorobenzonitrile]",0.9 µM
5,"CC(C)N1CC(=O)N([C@H](C)c2ccc(C(F)(F)F)cc2)C2(CN(c3ccccc3)C2)C1=O [Compound 141, (R)-8-isopropyl-2-phenyl-5-(1-(4-(trifluoromethyl)-phenyl)ethyl)-2,5,8-triazaspiro[3.5]nonane-6,9-dione]",10.7 µM
6,"CNc1ccccc1C(=O)N1CC2(C1)C(=O)N(c1ccc(C#N)cc1F)CC(=O)N2Cc1ccc(C(F)(F)F)cc1 [Compound 531, 3-fluoro-4-(2-(2-(methylamino)benzoyl)-6,9-dioxo-5-(4-(trifluoromethyl)benzyl)-2,5,8-triazaspiro[3.5]nonan-8-yl)benzonitrile]",5.0 µM
7,"CNC(=O)c1cccc(N2CC3(C2)C(=O)N(c2ccc(C#N)cc2F)CC(=O)N3Cc2ccc(C(F)(F)F)cc2)c1 [Compound 539, 3-(8-(4-cyano-2-fluorophenyl)-6,9-dioxo-5-(4-(trifluoromethyl)benzyl)-2,5,8-triazaspiro[3.5]nonan-2-yl)-N-methylbenzamide]",0.2 µM
8,"CNC(=O)N1CC2(C1)C(=O)N(c1ccc(F)c(F)c1)CC(=O)N2Cc1ccc(C(F)(F)F)cc1 [Compound 152, 8-(3,4-difluorophenyl)-N-methyl-6,9-dioxo-5-(4-(trifluoromethyl)benzyl)-2,5,8-triazaspiro[3.5]nonane-2-carboxamide]",2.8 µM
9,"O=C1CN(c2ncc(Cl)cc2F)C(=O)C2(CC3(COC3)C2)N1Cc1ccc(F)cc1 [Compound 815, 10-(5-chloro-3-fluoro-pyridin-2-yl)-7-(4-Fluorobenzyl)-2-oxa-7,10-diazadispiro-[3.1.56.14]dodecane-8,11-dione]",0.7 µM
10,"O=C1C(C2CC(O)C2)N(Cc2ccc(C(F)(F)F)cc2)C(=O)CN1c1ncc(Cl)cc1F (single isomer, unassigned) [Compound 740C, 1-(5-chloro-3-fluoropyridin-2-yl)-3-(3-hydroxycyclobutyl)-4-(4-(trifluoromethyl)benzyl)piperazine-2,5-dione]",>39 µM
11,"O=C1CN(c2ncc(Cl)cc2F)C(=O)C2(CC2)N1Cc1ccc(C(F)(F)F)cc1 [Compound 550, 7-(5-chloro-3-fluoropyridin-2-yl)-4-(4-(trifluoromethyl)benzyl)-4,7-diazaspiro[2.5]octane-5,8-dione]",0.8 µM
12,"CNc1c(C(=O)OC)cccc1N1CC2(C1)C(=O)N(c1ccc(C#N)cc1F)CC(=O)N2Cc1ccc(C(F)(F)F)cc1 [Compound 546, methyl 3-(8-(4-cyano-2-fluorophenyl)-6,9-dioxo-5-(4-(trifluoromethyl)benzyl)-2,5,8-triazaspiro[3.5]nonan-2-yl)-2-(methylamino)-benzoate]",1.0 µM
13,"CNC(=O)N1CC2(C1)C(=O)N(c1ncc(Cl)cc1F)CC(=O)N2[C@@H](C)c1ccc(Cl)cc1 [Compound 563, (S)-8-(5-chloro-3-fluoro-pyridin-2-yl)-5-(1-(4-chlorophenyl)ethyl)-N-methyl-6,9-dioxo-2,5,8-triazaspiro[3.5]nonane-2-carboxamide]",2.2 µM
14,"O=C1CN(c2ncc(Cl)cc2F)C(=O)C2(CC(F)C2)N1Cc1ccc(C(F)(F)F)cc1 (centres unmarked) [Compound 574, 8-(5-chloro-3-fluoropyridin-2-yl)-2-fluoro-5-(4-(trifluoromethyl)benzyl)-5,8-diazaspiro[3.5]nonane-6,9-dione]",0.3 µM
15,"O=C1C(C23CC(O)(C2)C3)N(Cc2ccc(C(F)(F)F)cc2)C(=O)CN1c1ncc(Cl)cc1F (centres unmarked) [Compound 838, 1-(5-chloro-3-fluoropyridin-2-yl)-3-(3-hydroxybicyclo[1.1.1]pentan-1-yl)-4-(4-(trifluoromethyl)benzyl)piperazine-2,5-dione]",3.8 µM
16,"CNC(=O)N1CC2(C1)C(=O)N(C(C)C)CC(=O)N2Cc1ccc(C(F)(F)F)cc1 [Compound 67, 8-isopropyl-N-methyl-6,9-dioxo-5-(4-(trifluoromethyl)benzyl)-2,5,8-triazaspiro[3.5]-nonane-2-carboxamide]",6.0 µM
17,"CC(C)NC(=O)N1CC2(C1)C(=O)N(c1ncc(Cl)cc1F)CC(=O)N2[C@@H](C)c1ccc(Cl)cc1 [Compound 561, (S)-8-(5-chloro-3-fluoro-pyridin-2-yl)-5-(1-(4-chlorophenyl)ethyl)-N-isopropyl-6,9-dioxo-2,5,8-triazaspiro[3.5]nonane-2-carboxamide]",19.8 µM
18,"CNC(=O)N1CC2(C1)C(=O)N(c1ccc(C3CC3)cc1)CC(=O)N2Cc1ccc(C(F)(F)F)cc1 [Compound 158, 8-(4-cyclopropylphenyl)-N-methyl-6,9-dioxo-5-(4-(trifluoromethyl)benzyl)-2,5,8-triazaspiro[3.5]-nonane-2-carboxamide]",9.7 µM
19,"Cc1cc(Cl)cnc1N1CC(=O)N(Cc2ccc(F)c(Cl)c2)C(C2COC2)C1=O (centres unmarked) [Compound 717, 1-(5-chloro-3-methyl-pyridin-2-yl)-4-(3-chloro-4-fluorobenzyl)-3-(oxetan-3-yl)piperazine-2,5-dione]",7.3 µM
20,"CNC(=S)N1CC2(C1)C(=O)N(c1ccc(C#N)c(F)c1)CC(=O)N2Cc1ccc(C(F)(F)F)cc1 [Compound 195, 8-(4-cyano-3-fluorophenyl)-N-methyl-6,9-dioxo-5-(4-(trifluoromethyl)benzyl)-2,5,8-triazaspiro[3.5]nonane-2-carbothioamide]",0.4 µM

# Same assay, conditions: Ca2+ activating to 75% of maximal rate, listed as 867A
row,CDMF75 IC15,Structure (SMILES)
1,2.1 µM,"O=C1CN(c2ccc(Cl)cc2F)C(=O)C2(CC(O)C2)N1Cc1ccc(F)cc1 (single isomer, unassigned) [Diastereomer 867A, 8-(4-chloro-2-fluorophenyl)-5-(4-fluorobenzyl)-2-hydroxy-5,8-diazaspiro[3.5]nonane-6,9-dione]"

# From patent US11414424B2, “Cardiac sarcomere inhibitors” (Cytokinetics, Inc., priority 2018, dated 2022)
